{"source": "paper PMC6934184", "about": "“Selective DNA-PKcs inhibition extends the therapeutic index of localized radiotherapy and chemotherapy” (The Journal of Clinical Investigation, 2019)", "target": "T1, MAP3K7/MAP3K7IP1 (TAK1-TAB1) (Homo sapiens, UniProt O43318)", "T1 construct": "purchased Thermo Fisher Scientific (Life Technologies) SelectScreen", "T1 sequence (O43318 1-303 limits assumed)": "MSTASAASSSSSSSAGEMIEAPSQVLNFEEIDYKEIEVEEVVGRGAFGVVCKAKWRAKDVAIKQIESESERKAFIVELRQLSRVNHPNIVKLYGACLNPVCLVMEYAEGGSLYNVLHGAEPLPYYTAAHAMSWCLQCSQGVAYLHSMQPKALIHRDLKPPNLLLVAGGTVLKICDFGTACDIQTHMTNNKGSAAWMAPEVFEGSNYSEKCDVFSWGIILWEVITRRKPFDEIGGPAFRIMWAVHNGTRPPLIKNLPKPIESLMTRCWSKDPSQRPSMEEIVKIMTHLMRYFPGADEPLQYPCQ", "T1 sequence (Q15750 437-504 partner limits assumed)": "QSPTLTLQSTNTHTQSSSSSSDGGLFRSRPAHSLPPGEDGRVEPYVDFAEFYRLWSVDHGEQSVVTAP", "assay": "SelectScreen LanthaScreen", "type": "binding", "details": "read-out: % displacement", "method_in_brief": "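SelectScreen broad panel; activity (Z'LYTE, Adapta) plus binding formats. ATP: Km app for CSF1R Z'LYTE; 10 for CAMK1 Adapta. Readout = % per kinase.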"}
{"smiles": "CN(C(=O)CN1CCOCC1)c1ccc2sc3c(-c4cccc5c(=O)cc(N6CC7CCC(C6)O7)oc45)cccc3c2c1", "note": "[NU5455]", "values": [{"measurement": "inhibition at 1 µM", "result": -3.4, "unit": "%"}]}
